{
  "source": "patent US8388975B2",
  "about": "“Cancer antigen peptides derived from WT1” (International Institute of Cancer Immunology, Inc., priority 2004, dated 2013)",
  "key": {"B-LCL cells [1]": {"tested_on": "B-LCL cells", "procedure": "(§1) The cytotoxic activity of CTLs on target cells was measured by ^51Cr-release assay. The ^51Cr-labeled target cells (1×10^4 cells/100 μL in total) were cocultured with different numbers of effector cells (100 μL) in a round-bottom 96-well plate. After culturing at 37° C. for 3-5 hours, the plate was centrifuged to separate the supernatant (100 μL) which was subjected to the measurement of γ ray. Specific cytotoxicity (% specific lysis) was calculated as follows: % specific lysis=(cpm experimental release−cpm spontaneous release)/(cpm maximal release−cpm spontaneous release)×100\nOne week later, PBMCs were pulsed with the peptide of SEQ ID NO: 8, and used as stimulators in the stimulation. The stimulation was conducted every one week 3 times in total. After 3 times of stimulation, CD8-positive cells were enriched by negative selection method. Further, stimulation with the peptide of SEQ ID NO: 8 was conducted 2 times. […] Experiments were carried out in the same manner as above using a peptide of SEQ ID NO: 9 and a peptide of SEQ ID NO: 2."}, "B-LCL cells [2]": {"tested_on": "B-LCL cells", "remark": "listed apart in the source", "procedure": "as §1"}},
  "note": "Read-outs that look alike come from different tables or passages of the source. Ends that are not written are not given here.",
  "data": [
    {"sequence": "VTFDGTPSY [SEQ ID NO: 8]", "values": [
      {"measurement": "cytotoxic activity (% specific lysis) of CTLs induced by stimulation with the peptide", "setting": "B-LCL cells [1]", "value": "more potent cytotoxic activity on B-LCL cells pulsed with the peptide than on B-LCL cells not-pulsed with the peptide"}
    ]},
    {"sequence": "DQLKRHQRR [SEQ ID NO: 2]", "values": [
      {"measurement": "cytotoxic activity (% specific lysis) of CTLs induced by stimulation with the peptide", "setting": "B-LCL cells [2]", "value": "more potent cytotoxic activity on B-LCL cells pulsed with the peptide than on B-LCL cells not-pulsed with the peptide"},
      {"measurement": "cytotoxic activity (% specific lysis) of CTLs induced by stimulation with the peptide", "setting": "B-LCL cells [1]", "value": "more potent cytotoxic activity on B-LCL cells pulsed with the peptide than on B-LCL cells not-pulsed with the peptide"}
    ]},
    {"sequence": "DLNALLPAV [SEQ ID NO: 3, Asp Leu Asn Ala Leu Leu Pro Ala Val]", "values": [
      {"measurement": "cytotoxic activity (% specific lysis) of CTLs induced by stimulation with the peptide", "setting": "T2 cells", "value": "more potent cytotoxic activity on T2 cells pulsed with the peptide than on T2 cells not-pulsed with the peptide"},
      {"measurement": "cytotoxic activity of CTLs induced by stimulation with the peptide on TF-1 cells", "setting": "TF-1 cell line", "value": "killed TF-1 cells"},
      {"measurement": "cytotoxic activity of CTLs induced by stimulation with the peptide on JY cells", "setting": "JY cell line", "value": "not JY cells"}
    ]},
    {"sequence": "QGSLGEQQY [SEQ ID NO: 9]", "values": [
      {"measurement": "cytotoxic activity (% specific lysis) of CTLs induced by stimulation with the peptide", "setting": "B-LCL cells [1]", "value": "more potent cytotoxic activity on B-LCL cells pulsed with the peptide than on B-LCL cells not-pulsed with the peptide"}
    ]}
  ]
}
